According to US9339486B2, “Heterocyclic modulators of cannabinoid receptors” (THE CLEVELAND CLINIC FOUNDATION, priority 2008, dated 2016):
Entries after “also recorded” stand apart in the source; their conditions may differ.

Columns and labels:
[1] = test system: spinal nerve ligation neuropathic pain model; experiment: Tactile allodynia in SNL neuropathic pain model (von Frey); type: in vivo, rat
Protocol: Adult, male Sprague Dawley (Harlan Sprague Dawley, Indianapolis, Ind.) rats weighing 120-150 gm were used in experimental procedures approved by the Animal Care and Use Committee of the M. D. Anderson Cancer Center, University of Texas. Animals were housed three per cage on a 12/12 hr light/dark cycle with water and food pellets available ad libitum.
All surgical procedures were performed under deep isoflurane anesthesia in 100% 02. The spinal nerve ligation (SNL) was performed as described previously. Kim, S. H., et al., An Experimental Model for Peripheral Neuropathy Produced by Segmental Spinal Nerve Ligation in the Rat, Pain, 1992, 50:355-63. Briefly, a midline incision above the lumbar spine exposed the left L6 transverse process. The process was then removed, the left L5 and L6 spinal nerves were isolated, and both nerves were tightly ligated with 6-0 silk. Prophylactic antibiotic (norfloxacin 5 mg/kg subcutaneously) and analgesic (buprenorphine, 0.2-0.5 mg/kg, or morphine, 2.5 mg/kg, given subcutaneously) were administered once daily for 3 days. All the experiments were conducted 10-14 days after spinal nerve ligation.
Rats were placed in a compartment with a wire mesh bottom and allowed to acclimate for a minimum of 30 min before testing. Mechanical sensitivity was assessed using a series of Von Frey filaments with logarithmic incremental stiffness (0.41, 0.70, 1.20, 2.00, 3.63, 5.50, 8.50, and 15.1 g) (Stoelting, Wood Dale, Ill.) as previously described, and 50% probability withdrawal thresholds were calculated with the up-down method. Chaplan, S. R., et al., Quantitative Assessment of Tactile Allodynia in the Rat Paw, J. Neurosci. Methods, 1994, 53:55-63; Dixon, W., The Up-and-Down Method for Small Samples, J. Am. Stat. Assoc., 1965, 60:967-78. In brief, beginning with the 2.0-g probe, filaments were applied to the plantar surface of a hind paw for 6-8 s, in an ascending or descending order after a negative or positive withdrawal response, respectively. Six consecutive responses from the first change in the response were used to calculate the withdrawal threshold (in grams). In cases where response thresholds fell outside the range of detection, 15.00 and 0.25 g were, respectively, assigned for continuous negative or positive responses to the limit of stimuli. The percent maximal possible effect (% MPE) was calculated as ([postdrug threshold−baseline threshold]/[cutoff threshold (15 g)−baseline threshold])×100.
Statistical analyses were carried out using BMDP 2007 (Statistical Solutions, Saugus, Mass., USA) and Graph Pad Prism (version 4.03; Graph Pad Software Inc., San Diego, Calif., USA). Data were analyzed using one-way ANOVA, repeated measures ANOVA, or t-test where appropriate. If ANOVA was significant, Tukey-Kramer post hoc analysis was used for multiple group comparison. Area under the curve (AUC) was calculated using the trapezoidal rule. The results are presented as mean±s.e. mean and were considered significant at P<0.05. Analyses of the dose-response curves and statistics were obtained using the pharmacologic software programs of Tallarida and Murray and included calculation of the ED50 values and their 95% confidence intervals (CI). Tallarida, R. J., et al., Manual of Pharmacologic Calculations With Computer Programs, Second ed. New York: Springer-Verlag, 1987.

[2] = target: hCB2 (human CB2) receptors (Homo sapiens (Human), UniProt P34972); experiment: GTPγ[35S] functional assay, CHO membrane extracts hCB2; type: biochemical
Protocol: Functional activity was evaluated using GTPγ[^35S] assay in CHO membrane extracts expressing recombinant hCB1 (human CB1) receptors or hCB2 (human CB2) receptors. The assay relies on the binding of GTPγ[^35S], a radiolabeled nonhydrolyzable GTP analogue, to the G protein upon binding of an agonist of the G-protein-coupled receptor. In this system, agonists stimulate GTPγ[^35S] binding whereas neutral antagonist have no effect and inverse agonists decrease GTPγ[^35S] basal binding.
The compound of Example 3 was solubilized in 100% DMSO at a concentration of 10 mM within 4 hours of the first testing session (master solution). A predilution for the dose response curve was performed in 100% DMSO and then diluted 100 fold in assay buffer at a concentration 2 fold higher than the concentration to be tested. […] For GTPγS membranes were mixed with GDP diluted in assay buffer to give 30 μM solution (volume:volume) and incubated for at least […] on ice. In parallel, GTPγ[^35S] (GE Healthcare, Catalogue number SJ1308) were mixed with the beads (PVT-WGA (GE Healthcare, RPNQ001)), diluted in assay buffer at 50 mg/ml (0.5 mg/10 μl) (volume:volume) just before starting the reaction. […] Then the plates were centrifuged for 10 min at 2000 rpm and counted for 1 min/well with a PerkinElmer TopCount reader. […]

[3] = target: CB1 (Homo sapiens (Human), UniProt P21554); experiment: Radioligand competition binding, CHO-K1 membranes, [3H]SR141716A
Protocol: Mukherjee, S., et al., Species Comparison and Pharmacological Characterization of Rat and Human CB2 Cannabinoid Receptors, Eur J Pharmacol, 2004, 505:1-9. The competition binding experiment was performed in 96 well plates (Masterblock®, Catalogue number 786201, Greiner Bio-One) containing binding buffer (50 mM Tris pH 7.4, 2.5 mM EDTA, 0.5% protease free BSA, saponine 10 μg/ml), recombinant membrane extracts (2 μg protein/well) and 1 nM [^3H] SR141716A (GE Healthcare, TRK1028, 42 Ci/mmol, diluted in binding buffer). […] The sample is incubated in a final volume of 0.1 ml for 60 min at 25° C. and then filtered on GF/C Unifilter microplate (Perkin Elmer, Catalogue number 6005177) presoaked in 0.05% Brij for 2 hrs at room temperature. Filters are washed six times with 4 ml of cold binding buffer and bound [^3H] SR141716A is determined by liquid scintillation counting. IC50 were determined by non-linear regression using one site competition equation. The inhibition constants (Ki) were calculated using the Cheng Prusoff equation (Ki=IC50/(1+(L/KD)), where L=concentration of radioligand in the assay, and KD=affinity of the radioligand for the receptor).

CC1(Cc2ccccc2)COc2cc(C(=O)N3CCCCC3)ccc21 (stereo not shown) [Example 3, 3-benzyl-3-methyl-2,3-dihydrobenzofuran-6-carboxylic acid-piperidine amide]
antiallodynic effect compared with 15 mg/kg AM1241 i.p. ([1]; 10 mg/kg i.p.): significantly (P<0.001) greater
ED50 ([1]; Rattus norvegicus, ip, 0.5 h, i.p., at 30 min, SNL model, read-out: ED50 anti-allodynic effect (tactile allodynia)): 7.48 mg/kg
effect of AM251 pretreatment (5 mg/kg i.p.) on antiallodynic effects of the compound ([1]; compound 10 mg/kg i.p., AM251 15 min prior): did not affect the antiallodynic effects; also recorded: had no effect
effect of AM630 pretreatment (5 mg/kg i.p.) on antiallodynic effects of the compound ([1]; compound 10 mg/kg i.p., AM630 15 min prior): antagonized the effects; also recorded: reversed the antiallodynic effects; also recorded: significantly reversed
effect of naloxone pretreatment (10 mg/kg i.p.) on antiallodynic activity ([1]; compound of Example 3 10 mg/kg i.p., naloxone 15 min prior): did not affect the antiallodynic effects; also recorded: had no effect
effect on tactile allodynia ([1]; i.p. 5, 10, 15 mg/kg): attenuated tactile allodynia in a dose-related manner
Emax [2]: 88%
EC50 ([2]; read-out: Agonist EC50 (mean ± s.e. mean) GTPγ[35S] functional assays hCB2): 128 nM
Ki ([3]; CHO-K1 membranes, 1 nM [3H]SR141716A, read-out: Mean Ki (nM) hCB1): > 10000 nM
radioactive ligand displacement at hCB1 receptors ([3]; up to 10 μM): did not demonstrate detectable radioactive ligand displacement
